Reference: patent US20240325327A1, “METHOD FOR ATTENUATING NEUROINFLAMMATION, AMYLOIDOPATHY AND TAUOPATHY” (Trustees of Dartmouth College, priority 2023, published 2024)

How the values were obtained:
ACAT2 [1] = target: T1, ACAT2 (Homo sapiens, UniProt O75908); details: at 1 mM; cited from earlier work
T1 sequence (O75908 1-522): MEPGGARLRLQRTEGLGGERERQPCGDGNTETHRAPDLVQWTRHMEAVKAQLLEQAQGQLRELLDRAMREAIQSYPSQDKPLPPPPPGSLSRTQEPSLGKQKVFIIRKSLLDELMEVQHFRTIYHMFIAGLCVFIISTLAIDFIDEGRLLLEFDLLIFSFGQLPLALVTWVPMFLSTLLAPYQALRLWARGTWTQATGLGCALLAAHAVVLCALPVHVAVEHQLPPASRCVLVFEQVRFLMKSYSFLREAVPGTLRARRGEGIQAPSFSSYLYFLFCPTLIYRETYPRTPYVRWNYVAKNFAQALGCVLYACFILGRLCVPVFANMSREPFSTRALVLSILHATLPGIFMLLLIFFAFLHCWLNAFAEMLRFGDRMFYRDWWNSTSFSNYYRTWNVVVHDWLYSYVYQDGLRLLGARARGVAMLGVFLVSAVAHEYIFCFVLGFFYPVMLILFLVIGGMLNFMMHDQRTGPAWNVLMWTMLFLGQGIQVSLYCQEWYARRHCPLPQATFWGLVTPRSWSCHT

ACAT2 [2] = target: T1, ACAT2; parameters: IC50 ACAT2; details: cited from earlier work
[3] = system: mouse model for Alzheimer's Disease; details: in vivo; cited from earlier work
ACAT1 = ACAT1 inhibition, literature values; type: biochemical, human; details: ratio of IC50 values ACAT2/ACAT1
Text: Cholesterol is stored as cholesteryl esters. For cholesterol esterification, there are two Acyl-CoA:Cholesterol Acyltransferase (ACAT) genes, SOAT1 and SOAT2, encoding two homologous but distinct enzymes, ACAT1 and ACAT2. Both enzymes use long-chain fatty acyl-CoAs and sterols with 3-beta-OH, including cholesterol and various oxysterols as their substrates. ACAT1 is the major cholesterol storage enzyme in the brain.
Biophys. Res. Comm. […] Here, the ACAT activity was monitored using the ACAT enzyme assay in vitro.

human ACAT1 [4] = target: T2, human ACAT1 (Homo sapiens, UniProt P35610); details: cited from earlier work
T2 sequence (P35610 1-550): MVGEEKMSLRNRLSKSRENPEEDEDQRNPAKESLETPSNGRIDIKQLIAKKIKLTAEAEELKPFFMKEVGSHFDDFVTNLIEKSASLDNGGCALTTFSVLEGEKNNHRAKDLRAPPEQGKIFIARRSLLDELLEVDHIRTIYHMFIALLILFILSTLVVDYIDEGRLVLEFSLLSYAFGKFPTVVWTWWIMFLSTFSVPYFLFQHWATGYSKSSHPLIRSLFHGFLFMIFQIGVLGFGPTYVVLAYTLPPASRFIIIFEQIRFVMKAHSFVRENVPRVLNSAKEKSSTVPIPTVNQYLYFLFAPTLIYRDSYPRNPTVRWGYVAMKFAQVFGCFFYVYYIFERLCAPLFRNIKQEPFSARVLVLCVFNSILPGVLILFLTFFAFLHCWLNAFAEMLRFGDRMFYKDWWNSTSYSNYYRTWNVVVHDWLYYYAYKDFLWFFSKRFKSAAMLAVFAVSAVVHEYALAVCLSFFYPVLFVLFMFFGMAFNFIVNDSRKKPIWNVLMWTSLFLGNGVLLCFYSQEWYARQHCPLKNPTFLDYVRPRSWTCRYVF

IL-4Rα [5] = assay: IL-4Rα expression in HMC3 microglia (western blot); type: cell-based, human; details: for IL-4Rα protein content: human myelin debris-treated HMC3 cells, 48 hours co-incubation
Experimental: (§1) IL-4Rα expression was determined by convention methods. 25 μg/mL cholesterol equals 38 μg/mL total myelin debris protein. Data are expressed as mean±SEM. *P<0.05; **P<0.01.
[…] Protein was isolated and analyzed by western blot analysis. Vinculin was the loading control. […] Data are expressed as mean±SEM. *P<0.05; **P<0.01.
(§2) Subsequently, myelin debris from human brains was prepared and it was observed that the cholesterol/protein ratio, as well as the protein composition between mouse myelin debris and human myelin debris, were very similar.

ABCA1 = ABCA1 protein content in human myelin debris-treated HMC3 cells; type: cell-based; details: human myelin debris at 25 μg/mL cholesterol, 0.5 μM inhibitor, 24 hours
Experimental: Afterward, cells were harvested for western blot analyses. Lysates of HEK293 cells and lysates of HMC3 cells treated with 10 μM LXR agonist T0901317 for 24 hours were respectively used as negative and positive controls for ABCA1 signals. […] Data are expressed as mean±SEM.
as §2

N9 microglial cells = assay: inflammatory responses to LPS in N9 microglial cells (qPCR, IκB-α western blot); type: cell-based, mouse; details: 0.5 μM for 4 hours, then 10, 100 or 1000 ng/mL LPS
Experimental: Cells were seeded at 1×10^5/well onto 12-well plates in RPMI-1640 with 10% bovine calf serum. […] Six hours later, mRNA was extracted, and qPCR was performed to monitor pro-inflammatory (FIG. 5A) or anti-inflammatory (FIG. 5B) gene expression. […] Thirty minutes later, proteins were extracted for western blot analysis for total IκB-α, and for phosphorylated IκB-α (p-IκB-α). *P<0.05; ** P<0.01.
It has now been shown that, in microglia, genetic inactivation of Acat1 suppresses certain pro-inflammatory response genes (FIG. 4A and FIG. 4C, e.g., IL-1β, iNOS, MCP1, Cxc19, Cxc110 and IL-6) and induces certain anti-inflammatory response genes (FIG. 4B and FIG. 4D, e.g., YM1) in the hippocampus (FIG. 4A and FIG. 4B) and cortex (FIG. 4C and FIG. 4D).

IL-4Rα [6] = assay: IL-4Rα expression in N9 microglia (immunoblot); type: cell-based, mouse
Experimental: Cells were harvested for immunoblot analysis for IL-4Rα. Vinculin was the loading control. Data expressed as mean+/−SEM, * p<0.05, ** p<0.01.
as §1
In microglia, various cholesterol-rich agents including myelin debris and damaged cell membranes enter the cells. […] In addition, the effects of ACAT1 blockade were tested in N9 and the human microglia-like cell line HMC3, which both express normal TREM-2 receptors.

human ACAT1 [7] = target: T2, human ACAT1; assay: mixed liposome ACAT1 assay
Experimental: In vitro Mixed Liposomal ACAT Activity Assay. […] Lysed cells were collected and aliquoted into pre-chilled tubes containing the liposomal mixture of taurocholate, phosphatidylcholine, and cholesterol. Tubes were vortexed and kept on ice for 5 minutes. Samples were then incubated in a 37° C. shaking water bath with ^3H-oleoyl CoA added for 10 minutes. The assay was stopped by adding CHCl3:MeOH (2:1). Lipids were extracted and analyzed by the same TLC method described herein.

## COc1ccc([C@@H](O)[C@@H](C)Oc2ccc([C@H]3O[C@H](c4ccc(O[C@H](C)[C@H](O)c5ccc6c(c5)OCO6)c(OC)c4)[C@H](C)[C@H]3C)cc2OC)cc1OC [manassantin B]
ACAT2 [1]
  inhibition of hACAT-2: 32%

## Saucerneol B
ACAT2 [2]
  IC50: 124 µM

## CCCCCCCC(=O)Nc1cc(-c2ccccc2)nn1-c1ccccc1 [compound 13]
ACAT2 [2]
  IC50: 53 µM

## CCCCCCCC[C@H](SCCCCCC)C(=O)Nc1c(SC)cc(C)nc1SC [CP113,818]
[3]
  amyloidopathy / cognitive deficits in mouse model for AD: reduce amyloidopathy and rescue cognitive deficits

## CCOC(=O)OC(=O)OCC [diethyl pyrocarbonate]
ACAT1
  selectivity for ACAT1 over ACAT2: 4 fold
Human ACAT1 [4]
  IC50: 44 µM
ACAT2 [2]
  IC50: 170 µM

## CCCCCCCCC(=O)Nc1cc(-c2ccccc2)nn1-c1ccccc1 [compound 14]
ACAT2 [2]
  IC50: 75 µM

## CCCCCCCCCNc1cc(-c2ccccc2)nn1-c1ccccc1 [compound 16]
ACAT2 [2]
  IC50: 97 µM

## CCCCCCCCC(=O)Nc1ccccc1-c1ccccc1 [compound 2]
ACAT2 [2]
  IC50: 414 µM

## CCCCCCCCCCCCS[C@H](C(=O)Nc1cc(C)c(O)c(C)c1C)c1ccccc1 [F12511]
IL-4Rα [5]
  IL-4Rα protein content: IL-4Rα protein content increases
ABCA1
  ABCA1 protein content: increased significantly
ACAT2 [2]
  IC50: 0.11 µM

## CC(C)c1cccc(C(C)C)c1NC(=O)CC(=O)C(Cc1ccccc1)Cc1ccc(O)cc1 (centres unmarked) [Compound 1B]
ACAT2 [2]
  IC50: 1.5 µM

## CC(C)c1cccc(C(C)C)c1NC(=O)CC(=O)C(Cc1ccccc1)Cc1ccc(OC(=O)CCCCCCN2CCCCCC2=O)cc1 (centres unmarked) [Compound 1C]
ACAT2 [2]
  IC50: 0.53 µM

## CCCCCCCC(=O)Nc1ccccc1-c1ccccc1 [compound 1]
ACAT2 [2]
  IC50: 230 µM

## CSc1cc(C)nc(SC)c1NC(=O)CN1CCN(CCSc2nc3ccccc3[nH]2)CC1 [K-604]
N9 microglial cells
  inflammatory responses to LPS: attenuates inflammatory responses to LPS
IL-4Rα [6]; N9 cells, 0.5 μM for 4 or 12 hours
  IL-4Rα expression: increases expression of the receptor IL-4Rα
IL-4Rα [6]; mouse myelin debris-treated N9 cells, 21 hours
  IL-4Rα expression: upregulates IL-4Rα expression
IL-4Rα [5]
  IL-4Rα protein content: IL-4Rα protein content increases
IL-4Rα [5]; mouse myelin debris-treated HMC3 cells, 21 hours
  IL-4Rα expression: upregulates IL-4Rα expression
ABCA1
  ABCA1 protein content: increased significantly

## CCCCCCCCCCCCS(=O)(=O)[C@](F)(C(=O)Nc1cc(C)c(O)c(C)c1C)c1ccccc1 [F26]
Human ACAT1 [7]
  EC50: 0.0058 µM
Human ACAT1 [7]; ratio of EC50 values
  potency relative to F12511 as ACAT1 inhibitor: ~7 times

## CC(C)c1cc(C(C)C)c(CC(=O)NS(=O)(=O)Oc2c(C(C)C)cccc2C(C)C)c(C(C)C)c1 [CI 1011]
[3]
  amyloidopathy / cognitive deficits in mouse model for AD: reduce amyloidopathy

## CCCC[C@H](C)[C@@H]1CC(=O)N[C@@H](Cc2ccccc2)C(=O)N[C@@H](C)C(=O)N[C@H](CC(C)C)C(=O)O1 [Beauveriolide I]
ACAT2 [2]
  IC50: 20 µM
